Literature values, collected in PMC7250496 (Journal of medicinal chemistry, 2020).
pEC50: −log10 of the molar value.

Legend:
mMC5R = mMC5R (Mus musculus, UniProt P41149); conditions: previously reported ref 80
mMC3R = mMC3R (Mus musculus, UniProt P33033); conditions: previously reported ref 80
Sequence of mMC3R (P33033 whole entry): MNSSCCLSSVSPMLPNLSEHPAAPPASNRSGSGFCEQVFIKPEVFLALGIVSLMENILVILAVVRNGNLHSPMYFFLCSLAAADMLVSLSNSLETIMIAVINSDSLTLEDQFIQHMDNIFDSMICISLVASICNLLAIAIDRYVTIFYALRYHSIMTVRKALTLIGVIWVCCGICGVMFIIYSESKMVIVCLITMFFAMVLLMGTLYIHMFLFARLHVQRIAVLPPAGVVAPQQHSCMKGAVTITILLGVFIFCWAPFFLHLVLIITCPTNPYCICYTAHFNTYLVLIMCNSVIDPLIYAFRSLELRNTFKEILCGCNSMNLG

Sequence of mMC5R (P41149 whole entry): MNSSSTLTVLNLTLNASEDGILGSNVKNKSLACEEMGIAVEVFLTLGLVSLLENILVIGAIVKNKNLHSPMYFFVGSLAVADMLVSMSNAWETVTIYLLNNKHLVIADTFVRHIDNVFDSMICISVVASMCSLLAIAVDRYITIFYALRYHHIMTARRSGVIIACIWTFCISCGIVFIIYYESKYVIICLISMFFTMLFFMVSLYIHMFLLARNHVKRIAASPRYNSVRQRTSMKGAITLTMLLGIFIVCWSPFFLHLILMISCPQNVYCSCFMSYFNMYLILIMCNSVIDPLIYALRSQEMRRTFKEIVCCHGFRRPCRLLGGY

- mMC5R Inverse Agonist, percent decrease from basal (mMC5R): Inverse Agonist −15%
- mMC3R pA2 (mMC3R; antagonist, Schild analysis, agonist NDP-MSH): 6.5 ± 0.09
- pEC50 (mMC3R; read-out: mMC3R EC50, agonist): < 4.00
Compound: C[C@@H]1NC(=O)[C@H](CN)NC(=O)[C@H](Cc2ccccc2)NC(=O)[C@H](Cc2ccccc2)NC(=O)[C@H](CCCNC(=N)N)NC(=O)[C@@H]2CCCN2C(=O)[C@H]2CCCN2C(=O)[C@H](Cc2ccccc2)NC1=O [Compound 2, c[Pro-Arg-Phe-Phe-Dap-Ala-Phe-DPro]]
